Measurements: US12427159B2, “Hydroxypyrrolidine-substituted arylsulfonamide compounds with selective activity in voltage-gated sodium channels” (Merck Sharp & Dohme LLC, priority 2019, dated 2025)
Values joined by “and” are separate entries in the source; they are usually repeats but may differ in a detail not shown here. Identical values can stand only once.

Assays:
human Nav1.7 channels = target: T1, human Nav1.7 channels (Homo sapiens, UniProt Q15858); test: IonWorks Quattro automated patch-clamp, inactivated state block of Nav1.7; type: cell-based; settings: human Nav1.7 stably expressed in HEK 293 cells, double-pulse protocol, read-out: potency for the Nav 1.7 sodium ion channel (as measured by IonWorks)
T1 construct: expressed in transfected cells; host or cells: HEK 293
Procedure: (§1) IonWorks® Experimental Procedure
(§2) Compounds were tested on human Nav1.7 and Nav1.5 channels stably expressed in HEK 293 cells. Sodium current measurements on IonWorks Quattro: An automated patch-clamp assay on the IonWorks Quattro platform (Molecular Devices) was used to measure state-dependent inhibition of human Nav1.7 and 1.5 channels. Cells were sealed on a planar substrate using the Population Patch […] (PPC) technology. Electrical access was obtained using both nystatin and amphotericin. A double-pulse protocol was used for the determination of IC50 values for inactivated state block. Nav1.7 and Nav1.5 expressing cells were voltage clamped at −100 mV and −110 mV, respectively. A depolarizing prepulse to −10 mV (Nav1.7) or −30 mV (Nav1.5) for 1000 ms followed by a 10 ms repolarization to −100 mV (Nav1.7) or −110 mV (Nav1.5) was given to generate fractional channel inactivation of ˜ 50%, followed by a 10 ms test pulse to −10 mV (Nav1.7) or −30 mV (Nav1.5) to measure peak current in control conditions and after compound addition. The following recording solutions were used (mM). External: 150 NaCl, 2 CaCl2), 5 KCl, 1 Mg Cl2, 10 HEPES, 12 Dextrose; internal: 120 CsF, 30 CsCl, 10 EGTA, 5 HEPES, 5 NaF, 2 MgCl2.
(§3) For all electrophysiology experiments, offline analysis was used to determine percent inhibition as a function of drug concentration. IC50 values were determined by fitting to the Hill equation.
(§4) The various compounds in Examples 1 through 4 and Tables 1 through 3 exemplified above were assayed for activity and selectivity using the foregoing IonWorks® technique. The results are reported in the following paragraph in a format expressing the identification of the compound with reference Example and compound (e.g. Ex 1-9 is Example 1, compound 9) followed by the observed potency in nM and the ratio of Nav1.7 potency:Nav 1.5 potency as described here. […]

human Nav1.5 channels = target: T2, human Nav1.5 channels (Homo sapiens, UniProt Q14524); test: IonWorks Quattro automated patch-clamp, Nav1.5 (selectivity versus Nav1.7); type: cell-based; settings: selectivity Nav1.7 over Nav1.5, both by IonWorks in HEK 293 cells
T2 construct: expressed in transfected cells; host or cells: HEK 293
Procedure: as §1, §2, §3, §4

T2 sequence (Q14524 whole entry): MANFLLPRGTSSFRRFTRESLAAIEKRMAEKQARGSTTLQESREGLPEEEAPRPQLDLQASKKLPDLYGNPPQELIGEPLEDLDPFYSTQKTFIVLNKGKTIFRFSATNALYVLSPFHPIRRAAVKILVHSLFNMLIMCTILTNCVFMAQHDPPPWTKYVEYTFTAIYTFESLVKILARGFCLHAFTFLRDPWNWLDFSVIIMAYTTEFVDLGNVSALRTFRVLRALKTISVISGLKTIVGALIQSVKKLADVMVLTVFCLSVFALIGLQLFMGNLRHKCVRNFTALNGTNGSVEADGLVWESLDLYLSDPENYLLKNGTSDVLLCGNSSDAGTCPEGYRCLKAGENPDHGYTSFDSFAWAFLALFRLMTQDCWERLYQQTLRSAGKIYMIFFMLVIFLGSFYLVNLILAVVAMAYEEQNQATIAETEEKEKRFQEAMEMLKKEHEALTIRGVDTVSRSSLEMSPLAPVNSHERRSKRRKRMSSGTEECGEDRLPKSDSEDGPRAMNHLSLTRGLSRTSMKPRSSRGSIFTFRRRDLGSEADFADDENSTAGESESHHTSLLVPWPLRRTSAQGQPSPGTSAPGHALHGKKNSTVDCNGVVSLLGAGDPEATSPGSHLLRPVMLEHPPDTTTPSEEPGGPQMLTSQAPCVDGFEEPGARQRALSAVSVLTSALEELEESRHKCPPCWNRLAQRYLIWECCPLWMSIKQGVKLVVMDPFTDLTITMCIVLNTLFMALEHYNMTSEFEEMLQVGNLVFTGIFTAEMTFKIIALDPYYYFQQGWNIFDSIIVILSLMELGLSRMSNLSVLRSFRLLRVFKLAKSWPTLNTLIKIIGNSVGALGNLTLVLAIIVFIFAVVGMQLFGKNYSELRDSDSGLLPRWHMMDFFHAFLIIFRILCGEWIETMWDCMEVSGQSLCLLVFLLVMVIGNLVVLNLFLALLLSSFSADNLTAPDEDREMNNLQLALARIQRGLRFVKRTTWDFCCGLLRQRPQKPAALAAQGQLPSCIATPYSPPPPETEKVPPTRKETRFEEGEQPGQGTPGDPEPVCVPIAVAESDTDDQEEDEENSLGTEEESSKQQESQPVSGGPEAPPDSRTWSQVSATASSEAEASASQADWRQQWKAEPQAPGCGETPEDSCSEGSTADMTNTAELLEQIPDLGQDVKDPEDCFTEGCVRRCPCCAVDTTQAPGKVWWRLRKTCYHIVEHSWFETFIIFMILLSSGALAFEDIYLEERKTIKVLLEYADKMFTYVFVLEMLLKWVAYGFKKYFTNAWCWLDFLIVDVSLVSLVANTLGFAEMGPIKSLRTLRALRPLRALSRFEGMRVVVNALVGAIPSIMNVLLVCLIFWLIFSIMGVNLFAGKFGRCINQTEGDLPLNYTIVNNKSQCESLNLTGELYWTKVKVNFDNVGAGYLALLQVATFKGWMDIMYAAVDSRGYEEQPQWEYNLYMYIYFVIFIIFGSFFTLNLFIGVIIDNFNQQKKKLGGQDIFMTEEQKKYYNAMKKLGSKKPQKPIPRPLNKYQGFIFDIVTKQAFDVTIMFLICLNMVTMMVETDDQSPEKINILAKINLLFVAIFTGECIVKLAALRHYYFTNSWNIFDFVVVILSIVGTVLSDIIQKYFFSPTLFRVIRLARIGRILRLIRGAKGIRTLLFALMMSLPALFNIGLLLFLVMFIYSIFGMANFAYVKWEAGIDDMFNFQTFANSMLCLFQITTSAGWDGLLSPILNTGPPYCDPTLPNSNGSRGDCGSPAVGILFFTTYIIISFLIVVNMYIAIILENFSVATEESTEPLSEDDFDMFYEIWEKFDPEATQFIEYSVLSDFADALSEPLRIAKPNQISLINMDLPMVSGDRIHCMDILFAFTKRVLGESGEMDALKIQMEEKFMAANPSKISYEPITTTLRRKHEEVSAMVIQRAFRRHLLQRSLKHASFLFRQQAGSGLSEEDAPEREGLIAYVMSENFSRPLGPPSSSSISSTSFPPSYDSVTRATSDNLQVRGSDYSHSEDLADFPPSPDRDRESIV
T1 sequence (Q15858 whole entry): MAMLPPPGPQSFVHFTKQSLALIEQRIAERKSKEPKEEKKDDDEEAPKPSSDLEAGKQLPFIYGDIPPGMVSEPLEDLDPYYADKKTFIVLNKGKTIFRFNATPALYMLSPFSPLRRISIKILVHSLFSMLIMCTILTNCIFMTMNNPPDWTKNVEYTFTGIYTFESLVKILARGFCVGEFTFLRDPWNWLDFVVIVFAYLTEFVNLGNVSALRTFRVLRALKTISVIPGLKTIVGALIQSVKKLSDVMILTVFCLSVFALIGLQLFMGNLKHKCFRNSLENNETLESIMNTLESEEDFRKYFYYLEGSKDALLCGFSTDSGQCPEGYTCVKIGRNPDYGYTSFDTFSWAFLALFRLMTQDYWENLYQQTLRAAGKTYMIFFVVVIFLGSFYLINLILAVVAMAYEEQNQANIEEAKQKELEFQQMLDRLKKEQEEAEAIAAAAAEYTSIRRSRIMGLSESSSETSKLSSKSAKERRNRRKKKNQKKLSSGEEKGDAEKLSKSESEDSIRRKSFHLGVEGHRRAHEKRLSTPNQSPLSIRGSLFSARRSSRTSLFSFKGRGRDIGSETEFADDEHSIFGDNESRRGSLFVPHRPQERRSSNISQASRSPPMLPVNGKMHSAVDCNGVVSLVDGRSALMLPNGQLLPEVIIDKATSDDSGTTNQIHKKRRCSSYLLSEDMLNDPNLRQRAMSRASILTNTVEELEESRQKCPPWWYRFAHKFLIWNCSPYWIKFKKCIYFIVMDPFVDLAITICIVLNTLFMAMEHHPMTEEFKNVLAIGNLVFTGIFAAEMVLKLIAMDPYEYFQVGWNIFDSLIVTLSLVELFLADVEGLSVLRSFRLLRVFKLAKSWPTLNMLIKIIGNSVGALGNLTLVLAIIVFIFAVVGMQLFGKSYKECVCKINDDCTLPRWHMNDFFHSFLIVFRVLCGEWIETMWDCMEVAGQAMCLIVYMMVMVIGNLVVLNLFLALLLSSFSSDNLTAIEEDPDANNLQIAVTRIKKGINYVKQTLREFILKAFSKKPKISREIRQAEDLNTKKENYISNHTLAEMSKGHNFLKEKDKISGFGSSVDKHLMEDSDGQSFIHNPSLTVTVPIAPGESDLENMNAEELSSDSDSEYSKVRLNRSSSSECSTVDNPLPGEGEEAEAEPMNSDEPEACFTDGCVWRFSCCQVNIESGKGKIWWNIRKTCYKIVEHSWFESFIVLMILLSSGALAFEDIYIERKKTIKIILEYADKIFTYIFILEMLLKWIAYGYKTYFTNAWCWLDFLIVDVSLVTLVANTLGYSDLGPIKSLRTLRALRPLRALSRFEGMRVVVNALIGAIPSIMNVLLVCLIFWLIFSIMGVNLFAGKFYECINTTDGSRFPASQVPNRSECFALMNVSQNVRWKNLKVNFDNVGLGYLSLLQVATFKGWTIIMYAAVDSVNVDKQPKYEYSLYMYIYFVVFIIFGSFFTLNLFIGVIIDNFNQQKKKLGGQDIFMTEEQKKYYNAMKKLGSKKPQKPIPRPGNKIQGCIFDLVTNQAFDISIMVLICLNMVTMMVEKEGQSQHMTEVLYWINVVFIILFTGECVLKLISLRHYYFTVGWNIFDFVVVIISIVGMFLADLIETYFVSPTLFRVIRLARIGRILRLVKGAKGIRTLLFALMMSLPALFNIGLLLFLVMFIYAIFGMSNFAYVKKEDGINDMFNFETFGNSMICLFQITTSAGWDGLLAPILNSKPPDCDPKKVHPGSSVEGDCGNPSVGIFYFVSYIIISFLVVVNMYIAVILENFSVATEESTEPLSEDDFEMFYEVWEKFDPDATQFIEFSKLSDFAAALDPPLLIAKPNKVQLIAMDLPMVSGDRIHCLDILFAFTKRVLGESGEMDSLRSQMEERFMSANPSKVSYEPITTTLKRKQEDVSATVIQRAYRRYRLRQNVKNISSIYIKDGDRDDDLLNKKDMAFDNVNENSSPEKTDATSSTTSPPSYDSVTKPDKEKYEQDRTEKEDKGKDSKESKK

SMILES | IC50 (human Nav1.7 channels) [nM] | ratio of Nav1.7 potency:Nav 1.5 potency (human Nav1.5 channels)
O=S(=O)(Nc1nccs1)c1cc(Cl)c(NC[C@]2(Cc3ccccc3)C[C@H](O)CN2)cc1F [Ex1-9, 4-((((2S,4S)-2-Benzyl-4-Hydroxypyrrolidin-2-Yl)Methyl)Amino)-5-Chloro-2-Fluoro-N-(Thiazol-2-Yl)Benzenesulfonamide] | 8 | 3976 and > 3976
O=S(=O)(Nc1nccs1)c1cc(Cl)c(NC[C@]2(CC3CCC3)C[C@H](O)CN2)cc1F [Ex1-15, 5-Chloro-4-((((2S,4S)-2-(Cyclobutylmethyl)-4-Hydroxypyrrolidin-2 Yl)Methyl)Amino)-2-Fluoro-N-(Thiazol-2-Yl)Benzenesulfonamide] | 4 | > 7500
O=S(=O)(Nc1nccs1)c1cc(Cl)c(NC[C@]2(Cc3ccc(Br)cc3)C[C@H](O)CN2)cc1F [Ex1-22, 4-((((2S,4S)-2-(4-Bromobenzyl)-4-Hydroxypyrrolidin-2-Yl)Methyl)Amino)-5-Chloro-2-Fluoro-N-(Thiazol-2-Yl)Benzenesulfonamide] | 4 | 84
O=S(=O)(Nc1nccs1)c1cc(Cl)c(NC[C@]2(CCc3ccccc3)C[C@H](O)CN2)cc1F [Ex1-28, 5-Chloro-2-Fluoro-4-((((2S,4S)-4-Hydroxy-2-Phenethylpyrrolidin-2-Yl)Methyl)-Amino)-N-(Thiazol-2-Yl)Benzenesulfonamide] | 3 | 11000
O=S(=O)(Nc1nccs1)c1cc(Cl)c(NC[C@]2(CCCc3ccccc3)C[C@H](O)CN2)cc1F [Ex1-29, 5-chloro-2-fluoro-4-((((2S,4S)-4-hydroxy-2-(3-phenylpropyl)-pyrrolidin-2-yl)methyl)amino)-N-(thiazol-2-yl)-benzene-sulfonamide] | 2 | 10500
O=S(=O)(Nc1nccs1)c1cc(Cl)c(NC[C@]2(Cc3cccc(Br)c3)C[C@H](O)CN2)cc1F [Ex1-30, 4-((((2S,4S)-2-(3-bromobenzyl)-4-hydroxypyrrolidin-2-yl)methyl)amino)-5-chloro-2-fluoro-N-(thiazol-2-yl) benzenesulfonamide] | 7 | 1220
COc1cccc(C[C@@]2(CNc3cc(F)c(S(=O)(=O)Nc4nccs4)cc3Cl)C[C@H](O)CN2)c1 [Ex1-31, 5-chloro-2-fluoro-4-((((2S,4S)-4-hydroxy-2-(3-methoxybenzyl)pyrrolidin-2-yl)methyl)amino)-N-(thiazol-2-yl) benzenesulfonamide] | 7 | 4714
Cc1cccc(C[C@@]2(CNc3cc(F)c(S(=O)(=O)Nc4nccs4)cc3Cl)C[C@H](O)CN2)c1 [Ex1-32] | 2 | 16500
O=S(=O)(Nc1nccs1)c1cc(Cl)c(NC[C@]2(Cc3cccc(F)c3)C[C@H](O)CN2)cc1F [Ex1-33, 5-chloro-2-fluoro-4-((((2S,4S)-2-(3-fluorobenzyl)-4-hydroxypyrrolidin-2-yl)methyl)amino)-N-(thiazol-2-yl) benzenesulfonamide] | 7 | 1714
CC(C)(C)CC[C@@]1(CNc2cc(F)c(S(=O)(=O)Nc3nccs3)cc2Cl)C[C@H](O)CN1 [Ex1-34, 5-chloro-4-((((2S,4S)-2-(3,3-dimethylbutyl)-4-hydroxypyrrolidin-2-yl)methyl)amino)-2-fluoro-N-(thiazol-2-yl) benzenesulfonamide] | 4 | 6750
N#Cc1ccc(C[C@@]2(CNc3cc(F)c(S(=O)(=O)Nc4nccs4)cc3Cl)C[C@H](O)CN2)cc1 [Ex2-2, 5-Chloro-4-((((2S,4S)-2-(4-Cyanobenzyl)-4-Hydroxypyrrolidin-2-Yl)Methyl)Amino)-2-Fluoro-N-(Thiazol-2-Yl)Benzenesulfonamide] | 4 | 3000
NCc1ccc(C[C@@]2(CNc3cc(F)c(S(=O)(=O)Nc4nccs4)cc3Cl)C[C@H](O)CN2)cc1 [Ex2-3, 4-((((2S,4S)-2-(4-(Aminomethyl) Benzyl)-4-Hydroxypyrrolidin-2-Yl) Methyl)Amino)-5-Chloro-2-Fluoro-N-(Thiazol-2-Yl)Benzenesulfonamide] | 38 | 868
N#Cc1cccc(C[C@@]2(CNc3cc(F)c(S(=O)(=O)Nc4nccs4)cc3Cl)C[C@H](O)CN2)c1 [Ex2-4, 5-chloro-4-((((2S,4S)-2-(3-cyanobenzyl)-4-hydroxypyrrolidin-2-yl)methyl)amino)-2-fluoro-N-(thiazol-2-yl)benzenesulfonamide] | 11 | 2909
NCc1cccc(C[C@@]2(CNc3cc(F)c(S(=O)(=O)Nc4nccs4)cc3Cl)C[C@H](O)CN2)c1 [Ex2-5, 4-((((2S,4S)-2-(3-(aminomethyl)benzyl)-4-hydroxypyrrolidin-2-yl)methyl)amino)-5-chloro-2-fluoro-N-(thiazol-2-yl)benzenesulfonamide] | 4 | 6250
O=S(=O)(Nc1nccs1)c1cc(Cl)c(NC[C@]2(Cc3ccc(-c4ccccn4)cc3)C[C@H](O)CN2)cc1F [Ex3-2, 5-Chloro-2-Fluoro-4-((((2S,4S)-4-Hydroxy-2-(4-(Pyridin-2-Yl)Benzyl)Pyrrolidin-2-Yl)Methyl)Amino)-N-(Thiazol-2-Yl)Benzenesulfonamide] | 7 | 543
O=S(=O)(Nc1nccs1)c1cc(Cl)c(NC[C@]2(Cc3ccc(-c4ncco4)cc3)C[C@H](O)CN2)cc1F [Ex3-3, 5-chloro-2-fluoro-4-((((2S,4S)-4-hydroxy-2-(4-(oxazol-2-yl)benzyl)pyrrolidin-2-yl)methyl)amino)-N-(thiazol-2-yl)benzenesulfonamide] | 9 | 933
O=S(=O)(Nc1nccs1)c1cc(Cl)c(NC[C@]2(Cc3ccc(-c4ccn[nH]4)cc3)C[C@H](O)CN2)cc1F [Ex4-2, 4-((((2S,4S)-2-(4-(1H-Pyrazol-5-Yl)Benzyl)-4-Hydroxypyrrolidin-2-Yl) Methyl)Amino)-5-Chloro-2-Fluoro-N-(Thiazol-2-Yl)Benzenesulfonamide] | 18 | 367
